In patent US20260374756A1, “HETEROCYCLIC COMPOUNDS AS INHIBITORS OF MONOACYLGLYCEROL LIPASE (MAGL)” (Hoffmann-La Roche Inc., priority 2022, published 2026) one finds IC50 data, which are given here for 20 compounds.

SMILES strings stand for the structures.

This assay deals with T1, hMAGL (Homo sapiens, UniProt Q99685).
T1 sequence (Q99685 1-303): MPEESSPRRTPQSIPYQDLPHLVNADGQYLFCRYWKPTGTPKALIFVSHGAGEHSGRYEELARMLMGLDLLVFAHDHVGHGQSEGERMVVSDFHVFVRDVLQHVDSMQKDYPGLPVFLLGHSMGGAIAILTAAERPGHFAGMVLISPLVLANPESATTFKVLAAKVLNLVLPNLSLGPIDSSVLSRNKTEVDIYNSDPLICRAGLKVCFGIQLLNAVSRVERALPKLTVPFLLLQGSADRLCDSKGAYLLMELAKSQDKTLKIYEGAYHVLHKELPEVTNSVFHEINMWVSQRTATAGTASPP
The experiment in a line: 2-AG assay: MAGL inhibition, hydrolysis of 2-arachidonoylglycerol to arachidonic acid followed by mass spectrometry. It is filed as biochemical. In outline: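 MAGL preincubated with compound 15 min at RT in 50 mM Tris, 1 mM EDTA, 0.01% Tween-20, 2.5% DMSO; reaction started with 8 μM 2-AG (final), […], 30 min at RT. Quenched with acetonitrile containing d8-arachidonic acid; arachidonic acid quantified by RapidFire SPE-triple quad MS as arachidonic acid/d8 ratio.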

As to `N=S(=O)(c1cnn(CC2CC3(C2)CN(C(=O)N2CC4(CC(n5cnc(C6CC6)n5)C4)C2)C3)c1)C(F)(F)F` (centres unmarked) [Example 349, [6-(3-cyclopropyl-1,2,4-triazol-1-yl)-2-azaspiro[3.3]heptan-2-yl]-[6-[[4-(trifluoromethylsulfonimidoyl)pyrazol-1-yl]methyl]-2-azaspiro[3.3]heptan-2-yl]methanone], the midpoint of inhibition, the IC50, lay at 1.02 nM. To `O=C(N1CC2(CC(c3cc(C4CC4)n[nH]3)C2)C1)N1CC2(CN(Cc3nc(C(F)(F)F)co3)C2)C1` [Example 215, [6-(3-cyclopropyl-1H-pyrazol-5-yl)-2-azaspiro[3.3]heptan-2-yl]-[6-[[4-(trifluoromethyl)oxazol-2-yl]methyl]-2,6-diazaspiro[3.3]heptan-2-yl]methanone] belongs 20 nM; to `Cc1cc(C2CC2)n(CC2CC3(C2)CN(C(=O)N2CC4(CC(n5cnc(C6(O)CC6)n5)C4)C2)C3)n1` [Example 133, [6-[(5-cyclopropyl-3-methyl-pyrazol-1-yl)methyl]-2-azaspiro[3.3]heptan-2-yl]-[6-[3-(1-hydroxycyclopropyl)-1,2,4-triazol-1-yl]-2-azaspiro[3.3]heptan-2-yl]methanone], 4.54 nM. As to `O=C(N1CC2(CCN(Cc3cc(C(F)(F)F)on3)CC2)C1)N1CC2(CC(n3cnc(C4CC4)n3)C2)C1` [Example 80, [6-(3-cyclopropyl-1,2,4-triazol-1-yl)-2-azaspiro[3.3]heptan-2-yl]-[7-[[5-(trifluoromethyl)isoxazol-3-yl]methyl]-2,7-diazaspiro[3.5]nonan-2-yl]methanone], inhibition was half-maximal at 8.61 nM (IC50).

`Cc1c(CN2CC3(C2)CN(C(=O)N2CC4(CC(n5cnc(C6CC6)n5)C4)C2)C3)cnn1CC(F)(F)F` [Example 115, [6-(3-cyclopropyl-1,2,4-triazol-1-yl)-2-azaspiro[3.3]heptan-2-yl]-[6-[[5-methyl-1-(2,2,2-trifluoroethyl)pyrazol-4-yl]methyl]-2,6-diazaspiro[3.3]heptan-2-yl]methanone] gave a half-inhibitory concentration (IC50) of 38.2 nM. To `CCn1nc(C(F)(F)F)cc1CN1CC2(C1)CN(C(=O)N1CC3(CC(n4cnc(C(F)(F)F)n4)C3)C1)C2` [Example 169] belongs 8.89 nM; to `Cn1ncc(C(F)(F)F)c1CN1CCC2(CC1)CN(C(=O)N1CC3(CC(c4cc(C5CC5)n[nH]4)C3)C1)C2` [Example 64, [6-(3-cyclopropyl-1H-pyrazol-5-yl)-2-azaspiro[3.3]heptan-2-yl]-[7-[[2-methyl-4-(trifluoromethyl)pyrazol-3-yl]methyl]-2,7-diazaspiro[3.5]nonan-2-yl]methanone], 0.32 nM; to `O=C(N1CC2(CC(n3cnc(C4(O)CC4)n3)C2)C1)N1CC2(CN(Cc3cc(C(F)(F)F)ns3)C2)C1` [Example 152, [6-[3-(1-hydroxycyclopropyl)-1,2,4-triazol-1-yl]-2-azaspiro[3.3]heptan-2-yl]-[6-[[3-(trifluoromethyl)isothiazol-5-yl]methyl]-2,6-diazaspiro[3.3]heptan-2-yl]methanone], 161 nM. To `O=C(N1CC2(CC(n3cnc(C4(O)CC4)n3)C2)C1)N1CC2(CN(Cc3snnc3C3CCC3)C2)C1` [Example 78, [6-[(4-cyclobutylthiadiazol-5-yl)methyl]-2,6-diazaspiro[3.3]heptan-2-yl]-[6-[3-(1-hydroxycyclopropyl)-1,2,4-triazol-1-yl]-2-azaspiro[3.3]heptan-2-yl]methanone] belongs 22.9 nM; to `O=C(N1CC2(CC(n3cnc(C(F)(F)F)n3)C2)C1)N1CC2(CN(Cc3ncc(C(F)(F)F)[nH]3)C2)C1` [Example 231, [6-[[5-(trifluoromethyl)-1H-imidazol-2-yl]methyl]-2,6-diazaspiro[3.3]heptan-2-yl]-[6-[3-(trifluoromethyl)-1,2,4-triazol-1-yl]-2-azaspiro[3.3]heptan-2-yl]methanone], 260 nM.

In turn, `O=C(N1CC2(CC(n3cnc(C(F)(F)F)n3)C2)C1)N1CC2(CN(Cc3nc(C(F)(F)F)cs3)C2)C1` [Example 51] returned an IC50 of 17 nM.

The compound `O=C(N1CC2(CC(n3cnc(C4CC4)n3)C2)C1)N1CC2(CN(Cc3ncc(C(F)F)s3)C2)C1` [Example 188, [6-(3-cyclopropyl-1,2,4-triazol-1-yl)-2-azaspiro[3.3]heptan-2-yl]-[6-[[5-(difluoromethyl)thiazol-2-yl]methyl]-2,6-diazaspiro[3.3]heptan-2-yl]methanone] yielded a 50% inhibitory concentration (IC50) of 3.94 nM. `Cn1ncc(CN2CC3(C2)CN(C(=O)N2CC4(CC(n5cnc(C(F)(F)F)n5)C4)C2)C3)c1S(N)(=O)=O` [Example 250, 2-methyl-4-[[2-[6-[3-(trifluoromethyl)-1,2,4-triazol-1-yl]-2-azaspiro[3.3]heptane-2-carbonyl]-2,6-diazaspiro[3.3]heptan-6-yl]methyl]pyrazole-3-sulfonamide] gave an IC50 of 969 nM. With `Cn1nc(C2CC2)cc1CN1CC2(C1)CN(C(=O)N1CC3(CC(n4cnc(C5CC5)n4)C3)C1)C2` [Example 272, [6-[(5-cyclopropyl-2-methyl-pyrazol-3-yl)methyl]-2,6-diazaspiro[3.3]heptan-2-yl]-[6-(3-cyclopropyl-1,2,4-triazol-1-yl)-2-azaspiro[3.3]heptan-2-yl]methanone], half-maximal inhibition (IC50) was put at 7 nM. To `O=C(N1CC2(CC(Cc3cc(C(F)(F)F)nn3CC(F)(F)F)C2)C1)N1CC2(CC(n3cnc(C4(O)CC4)n3)C2)C1` [Example 139] belongs 2.08 nM; to `O=C(N1CC2(CC(Cn3cc(CC(F)(F)F)cn3)C2)C1)N1CC2(CC(n3cnc(C4(O)CC4)n3)C2)C1` [Example 144, [6-[3-(1-hydroxycyclopropyl)-1,2,4-triazol-1-yl]-2-azaspiro[3.3]heptan-2-yl]-[6-[[4-(2,2,2-trifluoroethyl)pyrazol-1-yl]methyl]-2-azaspiro[3.3]heptan-2-yl]methanone], 6.75 nM. To `Cc1nc(C)c(CN2CC3(C2)CN(C(=O)N2CC4(CC(n5cnc(C6CC6)n5)C4)C2)C3)o1` [Example 307, [6-(3-cyclopropyl-1,2,4-triazol-1-yl)-2-azaspiro[3.3]heptan-2-yl]-[6-[(2,4-dimethyloxazol-5-yl)methyl]-2,6-diazaspiro[3.3]heptan-2-yl]methanone] belongs 102 nM; to `Cc1cc(C2CC2)nn1CC1CC2(C1)CN(C(=O)N1CC3(CC(n4cnc(C5(O)CC5)n4)C3)C1)C2` [Example 136, [6-[(3-cyclopropyl-5-methyl-pyrazol-1-yl)methyl]-2-azaspiro[3.3]heptan-2-yl]-[6-[3-(1-hydroxycyclopropyl)-1,2,4-triazol-1-yl]-2-azaspiro[3.3]heptan-2-yl]methanone], 5.53 nM. Compound `O=C(N1CC2(CC(Cc3n[nH]c(C(F)(F)F)n3)C2)C1)N1CC2(CC(n3cnc(C(F)(F)F)n3)C2)C1` [Example 9, [6-[3-(trifluoromethyl)-1,2,4-triazol-1-yl]-2-azaspiro[3.3]heptan-2-yl]-[6-[[5-(trifluoromethyl)-1H-1,2,4-triazol-3-yl]methyl]-2-azaspiro[3.3]heptan-2-yl]methanone] displayed a half-inhibitory concentration (IC50) of 7.07 nM.

`O=C(N1CC2(CCN(Cc3cc(C(F)(F)F)sn3)CC2)C1)N1CC2(CC(n3cnc(C4CC4)n3)C2)C1` [Example 47, [6-(3-cyclopropyl-1,2,4-triazol-1-yl)-2-azaspiro[3.3]heptan-2-yl]-[7-[[5-(trifluoromethyl)isothiazol-3-yl]methyl]-2,7-diazaspiro[3.5]nonan-2-yl]methanone] registered an IC50 of 1.86 nM.

One may read the IC50 as the concentration needed to halve the response being measured.
